Test results published in US20030005484A1, “Microbiocidal and pesticidal aromatic aldehydes” (ProGuard, Inc., priority 1994, published 2003).
Several values for one entry are separate records, joined by “and”; a condition that tells them apart may be missing. Identical values can stand only once.

What was measured:
Root Knot Nematode = experiment: vineyard grape vines, nematode infestation: root knot; type: in vivo
Protocol: (§1) The subject formulations were tested for ability to reduce grape vine infestation by root knot, ring, stubby root, and roll lesion nematodes. Grape vines (Harmony rootstock) in a vinyard were treated with 1000 ppm or 3000 ppm cinnamaldehyde in 2% Tween 80, the commercial anti-nematode agent Nemacur, or a formulation blank. The extent of nematode infestation was determined at the time of treatment and at 30 and 60 days post-treatment.

phylloxera Biotype A = experiment: planter / field box vines, leaf spray, phylloxera population on roots; type: in vivo, Daktulosphaira vitifoliae; details: for Number of phylloxera per root piece: Merlot, two weeks; for reduction of population versus control vines: field planter boxes, after two weeks; for phylloxera population, Mean ± 95% CI: boxed 1 year old Merlot
Source text: Planter boxes are wooden boxes with a top surface area of 1.5 m×1 m and are 1.5 m tall. They were filled with a clay-loam soil and each was planted to 4 one-year old Merlot plants in early spring, 1995. They were infested with biotype A phylloxera in May, 1995 by placing about 150 eggs adjacent to an attached root under the soil surface. The plants were irrigated weekly with a fine mist. Treatments were made at various times in July and August 1995 using the household 1 liter-capacity plastic spray bottles, spraying to runoff. At one or two weeks after treatment, plants root systems were removed from the soil and total phylloxera populations were estimated.

[1] = system: Fusarium subglutinans f. sp. pini; experiment: radial growth on amended potato dextrose agar; type: cell-based; details: five days at 18° C
Protocol: A double-blind bioassay was undertaken using cinnamic aldehyde in various concentrations and formulations. The bioassay was based on inhibition of radial growth of Fusarium subglutinans f. sp. pini. Eight ml of formulation (concentration unknown) was pipetted into 200 ml of molten 2% potato dextrose agar (PDA) and the mixture was dispersed into five plastic petri dishes (25 ml dish). Each of four plates was inoculated at the center with an agar plug transferred from a growing PDA culture of Fusarium subglutinans f. sp. pini (isolate SL-1, UCB), while the fifth plate was left noninoculated as a control. These steps were repeated for each formulation of the cinnamic aldehyde. As a positive control, four PDA plates amended with 5 ppm benomyl were inoculated. as described; the negative control was four unamended PDA plates that were inoculated with F. subglutinans. All inoculated and non-inoculated plates were incubated at 18° C. for five days, after which colony diameters were measured.

Roll Lesion nematode = experiment: vineyard grape vines, nematode infestation: roll lesion; type: in vivo
Protocol: as §1

Ring Nematode = experiment: vineyard grape vines, nematode infestation: ring; type: in vivo
Protocol: as §1

[2] = system: black bean aphid, Tetranychus urticae; experiment: aphid Petri dish bioassay; details: for mortality: three hours contact
Protocol: Activity of cinnamic aldehyde and/or coniferyl aldehyde against black bean aphid, Tetranychus urticae, and silverleaf white fly, Bemisia argentifolii was determined as follows:
Petri dishes (60 mm) were treated with cinnamic aldehyde at 10-25,000 ppm in 2% Tween 80 and 6% NaHCO3 dissolved in water, and the dishes allowed to air dry. Twenty adult aphids (Tetranychus urticae) were put in each dish, (replicate 10 times). The mortality after three hours in contact with a treated plate was compared to that of aphids in petri dishes treated only with diluent. Malathion (250 ppm) was used as a positive control.

powdery mildew = powdery mildew on Chardonnay grapes; type: in vivo
Protocol: The effect of 0.3% and 0.6% cinnamic aldehyde on pacific mites on grapevine leaves was examined cinnamic aldehyde was diluted to 0.3% and 0.6% in water. Each formulation was sprayed onto a 1 acre block of Chardonnay wine grapes with a tractor-drawn 500 gal. hydraulic sprayer at 150 psi at a rate of 150 gal./acre. As a control, a 10-acre block of Chardonnay wine grapes was treated the same day as the test formulations with the conventional treatment (Omite) per label directions. The number of mites was counted the day prior to spraying and 4 days after spraying. […] In fact, both concentrations reduced the number of mites to a larger extent than the positive control, conventional treatment, Omite. The 0.6% rate nearly eliminated live mites on grapevines. […] The 0.6% was slightly beter than the 0.3 % cinnamic aldehyde with respect to powdery mildew control.
The effect of 0.4% cinnamic aldehyde on powdery mildew and pacific mites on grapes was examined. Cinnamic aldehyde was diluted to 0.4% in water and sprayed onto a 1.8 acre test plot of Chardonnay grapevines with a tractor drawn, PTO powered sprayer, spraying at approximately 100 psi at a rate of 150 gal./acre. A 3 acre untreated plot served as a negative control. Additional controls included treatment of a 3.8 acre plot with stylet oil and a plot treated with a mix of Rubigan, Omite, and stylet oil, which cost appriximately $60.00/acre. Spray cards were placed randomly through the test block. Ten fruit clusters, which were generally completely covered with powdery mildew, in each of the four fields were flagged. […] Therefore, cinnamic aldehyde was effective at controlling both powdery mildew and pacific mites on grapes.

[3] = 1000 ppm in 2% Tween 80, 30 days post-treatment
[4] = 1000 ppm in 2% Tween 80, 60 days post-treatment
[5] = 1000 ppm in 2% Tween 80, day 0 (time of treatment)
[6] = 3000 ppm in 2% Tween 80, 30 days post-treatment
[7] = 3000 ppm in 2% Tween 80, 60 days post-treatment
[8] = 3000 ppm in 2% Tween 80, day 0 (time of treatment)
[9] = CNMA 0.4% in water, 150 gal./acre, controls stylet oil, chemical mix

O=C/C=C/c1ccccc1 [cinnamic aldehyde]
Root Knot Nematode, nematodes per 250 cc soil (Root Knot Nematode; [3]): 872 per 250 cc soil
Root Knot, nematodes per gram root (Root Knot Nematode; [3]): 55.2 per gram root
Root Knot Nematode, nematodes per 250 cc soil (Root Knot Nematode; [4]): 204.5 per 250 cc soil
Root Knot, nematodes per gram root (Root Knot Nematode; [4]): 11.8 per gram root
Root Knot Nematode, nematodes per 250 cc soil (Root Knot Nematode; [5]): 498.8 per 250 cc soil
Root Knot, nematodes per gram root (Root Knot Nematode; [5]): 301.3 per gram root
Root Knot Nematode, nematodes per 250 cc soil (Root Knot Nematode; [6]): 700 per 250 cc soil
Root Knot, nematodes per gram root (Root Knot Nematode; [6]): 125.6 per gram root
Root Knot Nematode, nematodes per 250 cc soil (Root Knot Nematode; [7]): 269.8 per 250 cc soil
Root Knot Nematode, nematodes per 250 cc soil (Root Knot Nematode; [8]): 379.8 per 250 cc soil
Root Knot, nematodes per gram root (Root Knot Nematode; [8]): 24.4 per gram root
Number of phylloxera per root piece (phylloxera Biotype A; 1 K CNMA, one value per plant): 133 and 72 and 95
Number of phylloxera per root piece (phylloxera Biotype A; 20 K (20,000 ppm CNMA in 6% NaHCO3 and 2% Tween-80)): 16
reduction of population versus control vines (phylloxera Biotype A; 1,000 ppm leaf spray): 92%
reduction of population versus control vines (phylloxera Biotype A; 10,000 ppm leaf spray): 95%
phylloxera population, Mean ± 95% CI (phylloxera Biotype A; foliage to runoff, 1000 ppm, Exp. 1): 100 ± 31
phylloxera population, Mean ± 95% CI (phylloxera Biotype A; foliage to runoff, 1000 ppm, Exp. 2): 58 ± 17
phylloxera population, Mean ± 95% CI (phylloxera Biotype A; foliage to runoff, 10,000 ppm, Exp. 1): 60 ± 37
phylloxera population, Mean ± 95% CI (phylloxera Biotype A; foliage to runoff, 10,000 ppm, Exp. 2): 43 ± 56
Colony diameter (cm) ([1]; 10 ppm CNMA (with saponin: 0.86 ml Yucca extract 10° BRIX)): 4.36 cm
Colony diameter (cm) ([1]; 10 ppm CNMA (with saponin: 0.86 ml Yucca extract 10° BRIX), listed as CNMA): 4.363 cm
Colony diameter (cm) ([1]; 100 ppm CNMA (with saponin: 0.86 ml)): 4.238 cm
Colony diameter (cm) ([1]; 100 ppm CNMA (with saponin: 0.86 ml), listed as PGXL CNMA): 4.24 cm
Colony diameter (cm) ([1]; 2,500 ppm CNMA (with saponin: 0.86 ml)): 3.513 cm
Colony diameter (cm) ([1]; 2,500 ppm CNMA (with saponin: 0.86 ml), listed as PGXL CNMA): 3.51 cm
Colony diameter (cm) ([1]; 5,000 ppm CNMA (with saponin: 0.86 ml)): 2.908 cm
Colony diameter (cm) ([1]; 5,000 ppm CNMA (with saponin: 0.86 ml), listed as PGXL CNMA): 2.91 cm
Colony diameter (cm) ([1]; 12,500 ppm CNMA (with saponin: 0.86 ml)): 0.000 cm
Colony diameter (cm) ([1]; 12,500 ppm CNMA (with saponin: 0.86 ml), listed as PGXL CNMA): 0 cm
Colony diameter (cm) ([1]; 25,000 ppm CNMA (with saponin: 0.86 ml)): 0.000 cm
Colony diameter (cm) ([1]; 25,000 ppm CNMA (with saponin: 0.86 ml), listed as PGXL CNMA): 0 cm
Roll Lesion, nematodes per gram root (Roll Lesion nematode; [3]): 2.7 per gram root
Roll Lesion, nematodes per gram root (Roll Lesion nematode; [4]): 0 per gram root
Roll Lesion, nematodes per gram root (Roll Lesion nematode; [5]): 2.9 per gram root
Roll Lesion, nematodes per gram root (Roll Lesion nematode; [6]): 0.56 per gram root
Roll Lesion, nematodes per gram root (Roll Lesion nematode; [8]): 1.0 per gram root
Ring Nematode, nematodes per 250 cc soil (Ring Nematode; [3]): 171.2 per 250 cc soil
Ring Nematode, nematodes per 250 cc soil (Ring Nematode; [4]): 1168 per 250 cc soil
Ring Nematode, nematodes per 250 cc soil (Ring Nematode; [5]): 47.2 per 250 cc soil
Ring Nematode, nematodes per 250 cc soil (Ring Nematode; [6]): 322.8 per 250 cc soil
Ring Nematode, nematodes per 250 cc soil (Ring Nematode; [7]): 1127 per 250 cc soil
Ring Nematode, nematodes per 250 cc soil (Ring Nematode; [8]): 540.2 per 250 cc soil
mortality ([2]; 10 ppm in 2% Tween 80 and 6% NaHCO3): 25%
mortality ([2]; 100 ppm in 2% Tween 80 and 6% NaHCO3): 50%
aphids killed ([2]; 2500 ppm and above in 2% Tween 80 and 6% NaHCO3, three hours contact with treated dish): 100%
% INHIBITION (PM) (powdery mildew; [9]): 88%
PM POST-SPRAY (powdery mildew; [9]): 10
PM PRE-SPRAY (powdery mildew; baseline, CNMA 0.4% plot, stylet oil plot, chemical mix plot): 84
incidence of powdery mildew (not quantitated) (powdery mildew; both treatments, 0.3% and 0.6% in water, Chardonnay): markedly reduced
